What was measured:
[1] = cited from earlier work
[2] = in vivo; cited from earlier work
[3] = irrespective of application route; cited from earlier work
gastric mucous membrane = assay: Effect on gastric mucous membrane (irritation); assay type: in vivo, rats
Procedure: […] After 4 hours its effect on irritation of gastric mucous membrane was measured in a way that the rate of bleeding in stomach and frequency of ulcers was determined.

mice of Han-NMRI strain = assay: in vivo; details: for comparative toxicity (in words): peroral, mice and rats
Procedure: (§1) In the test mice of Han-NMRI strain of both sexes, weight 19 to 24 g, and female rats of Han-WISTAR strain, weight 220 to 250 g, were used. The active substance was suspended in arachis oil and applied perorally. The volume of the applied suspension was 0.2 ml/20 g body weight in mice and 0.2 ml/200 g body weight in rats. Before the test the animals were fasted for 24 hours and after application, water and food were available ad libitum.

in vivo = details: po
Procedure: as §1

[4] = tested on: oedema caused by carrageenin; assay: Antiinflammatory action in vivo (carrageenin oedema); design: species or system rats
Procedure: Antiinflammatory action was measured in vivo by the inhibition of oedema caused by carrageenin.
Rats, which were fasted overnight, were given 100 mg/kg of the test substance 1 hour before the injection of 0.1 ml 1% carrageenin suspension.

[5] = tested on: convulsions caused by phenylbenzoquinone; assay: Alleviation of pain (phenylbenzoquinone-induced convulsions); assay type: in vivo, female mice; details: Mus musculus, po, read-out: ED50 (50% pain protection); 95% confidence limit; peroral, 30 minutes before intraperitoneal phenylbenzoquinone
Procedure: The effect of alleviating pain was tested with the number of convulsions caused by phenylbenzoquinone. Female mice, weight 15 to 22 g, were fasted before the test for 24 hours and after the application water and food were ad libitum. 30 minutes after peroral introduction of the suspension of active substance in 10% gum arabic solution, individual mice were intraperitoneally administered 0.25 ml of 0.02% phenylbenzoquinone solution. Only the vehicle was applied to a control group of animals. The number of phenylbenzoquinone-induced convulsions was pursued 5 to 20 minutes after the application thereof.
ED50 calculated dosis of the active substance in mg per 1 kg of the
animal, which dosis caused a 50% pain protection

[6] = cited from earlier work; remark: listed apart in the source
[7] = mouse, in vivo, 2000 mg/kg, % of deaths after 15 days, female mice, 2000 mg/kg peroral
[8] = mouse, in vivo, 2000 mg/kg, % of deaths after 15 days, male mice, 2000 mg/kg peroral
[9] = mouse, in vivo, 2000 mg/kg, % of deaths in 24 h, female mice, 2000 mg/kg peroral
[10] = mouse, in vivo, 2000 mg/kg, % of deaths in 24 h, male mice, 2000 mg/kg peroral

For `CC(C)Cc1ccc(C(C)C(=O)O)cc1` (centres unmarked) [ibuprofen, 2-(4-isobutylphenyl)-propionic acid], the “LD50 comparison at parenteral application” value [1] is listed as “the same for both substances” and the “analgetic, antipyretic and antiinflammatory action (in words)” value [2] is listed as “same analgetic, antipyretic and antiinflammatory action of both substances”.

In the case of `CC(C)Cc1ccc(C(C)C(=O)NO)cc1` (racemic) [racemic ibuproxam, 2-(4-isobutylphenyl)-propiohydroxamic acid], the “LD50 comparison at parenteral application” value [1] is given as “the same for both substances”, the “analgetic, antipyretic and antiinflammatory action (in words)” value [2] is given as “same analgetic, antipyretic and antiinflammatory action of both substances” and the “bioavailability in comparison with ibuprofen (in words)” value [2] is given as “better bioavailability of ibuproxam in comparison with ibuprofen”. The “toxicity for the mucous membrane of the alimentary tract (in words)” value [2] was “less toxic for the mucous membrane of the alimentary tract” and the “metabolic conversion into ibuprofen (in words)” value [3] was “rapid and almost complete metabolic conversion into ibuprofen”.

With `CC(C)Cc1ccc([C@H](C)C(=O)NO)cc1` [S-(+)-ibuproxam, S-(+)-2-(4-isobutylphenyl)-propiohydroxamic acid] the “irritation of gastric mucous membrane” value (gastric mucous membrane; dose 30 mg/kg peroral, rate of bleeding and frequency of ulcers after 4 hours) was 0, the “irritating effect on gastric mucous membrane (in words)” value (gastric mucous membrane; rat, in vivo) was “did not exhibit an irritating effect on gastric mucous membrane” and the “animals died (in words)” value (mice of Han-NMRI strain; female mice, 1000 mg/kg or 2000 mg/kg peroral, 15 days) was “no animal died”. The “animals died (in words)” value (mice of Han-NMRI strain; male mice, 2000 mg/kg peroral) was “no animal died”, the “animals died in 15 days (in words)” value (mice of Han-NMRI strain; mice of both sexes, 2000 mg/kg peroral) was “no animal died in 15 days” and the “comparative toxicity (in words)” value (mice of Han-NMRI strain) was “less toxic than S-(+)-ibuprofen”. The mortality at 360 h (in vivo; [7]) was 0%, the mortality at 360 h (in vivo; [8]) was 0% and the mortality at 24 h (in vivo; [9]) was 0%. It also gave a mortality at 24 h (in vivo; [10]) of 0%, a mortality at 24 h (in vivo; rat, 1000 mg/kg) of 0% and a mortality at 360 h (in vivo; rat, 1000 mg/kg) of 50%. For the same compound, the mortality at 360 h (in vivo; rat, 2000 mg/kg) was 50%, the antiinflammatory action ([4]; 100 mg/kg peroral, 1 hour before carrageenin, oedema inhibition 3 hours after carrageenin) was 37 and the “comparative antiinflammatory action (in words)” value ([4]; rat, in vivo) was “greater antiinflammatory action than free racemic ibuproxam”. It also gave an ED50 [5] of 73 mg/kg.

For `CC(C)Cc1ccc([C@H](C)C(=O)O)cc1` [S-(+)-ibuprofen], the “irritation of gastric mucous membrane” value (gastric mucous membrane; rat, in vivo, 30 mg/kg) was 12, the “comparative toxicity (in words)” value (mice of Han-NMRI strain) was “acute toxicity of S-(+)-ibuprofen in all test animals is greater than acute toxicity of S-(+)-ibuproxam” and the mortality at 360 h (in vivo; mouse, in vivo, 1000 mg/kg, % of deaths after 15 days, female mice, 1000 mg/kg peroral) was 10%. For the same compound, the mortality at 24 h (in vivo; mouse, in vivo, 1000 mg/kg, % of deaths in 24 h, female mice, 1000 mg/kg peroral) was 10%, the mortality at 360 h (in vivo; [7]) was 10% and the mortality at 360 h (in vivo; [8]) was 30%. It also gave a mortality at 24 h (in vivo; [9]) of 10%, a mortality at 24 h (in vivo; [10]) of 0% and a mortality at 48 h (in vivo; mouse, in vivo, 2000 mg/kg, animals died in 48 hours, male mice, 2000 mg/kg peroral) of 30%. The LD50 (in vivo; rat) was < 1000 mg/kg, the mortality at 24 h (in vivo; rat, 1000 mg/kg) was 0% and the mortality at 144 h (in vivo; rat, 1000 mg/kg) was 83.3%. The mortality at 360 h (in vivo; rat, 1000 mg/kg) was 83.3% and the “pharmacological activity (in words)” value ([6]; in vivo) was “pharmacologically active”.

In the case of `CC(C)Cc1ccc([C@@H](C)C(=O)O)cc1` [R-(-)-enantiomer], the “conversion to S-(+)-enantiomer in humans” value ([6]; humans) is listed as “only one third thereof, is converted to S-(+)-enantiomer”.
